Reference: ChEMBL document CHEMBL1201862, “PubChem BioAssay data set” (2004)
Active and inactive are the calls of the source.

Assays:
[1] = biological target: Sphingosine 1-phosphate receptor 4 (Homo sapiens, UniProt O95977); assay: Late-stage fluorescence-based dose-response cell-based counterscreen assay to identify agonists of the Sphingosine 1-Phosphate Receptor 3 (S1P3): Sphingosine 1-Phosphate Receptor 4 (S1P4) agonist assay.; format: functional
[2] = biological target: Sphingosine 1-phosphate receptor 2 (Homo sapiens, UniProt O95136); assay: Late-stage fluorescence-based dose-response cell-based counterscreen assay to identify agonists of the Sphingosine 1-Phosphate Receptor 3 (S1P3): Sphingosine 1-Phosphate Receptor 2 (S1P2) agonist assay.; format: functional
Sequence of Sphingosine 1-phosphate receptor 2 (O95136 whole entry): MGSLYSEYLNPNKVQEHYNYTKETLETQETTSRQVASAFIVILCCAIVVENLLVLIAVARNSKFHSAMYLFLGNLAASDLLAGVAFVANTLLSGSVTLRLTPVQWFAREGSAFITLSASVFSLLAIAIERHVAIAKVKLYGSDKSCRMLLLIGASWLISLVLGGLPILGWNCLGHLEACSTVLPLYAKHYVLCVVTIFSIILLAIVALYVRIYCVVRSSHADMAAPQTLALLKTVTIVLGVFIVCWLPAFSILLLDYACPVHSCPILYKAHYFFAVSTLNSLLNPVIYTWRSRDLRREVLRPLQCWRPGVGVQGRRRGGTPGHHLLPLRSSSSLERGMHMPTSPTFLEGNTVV

[3] = biological target: DNA dC->dU-editing enzyme APOBEC-3G (Homo sapiens, UniProt Q9HC16); assay: APOBEC3G deaminase inhibitors, SAR follow-up, biochemical, fluorescence, single-stranded DNA substrate (AID 602136); format: functional; conditions: read-out: IC50_Mean
Sequence of DNA dC->dU-editing enzyme APOBEC-3G (Q9HC16 whole entry): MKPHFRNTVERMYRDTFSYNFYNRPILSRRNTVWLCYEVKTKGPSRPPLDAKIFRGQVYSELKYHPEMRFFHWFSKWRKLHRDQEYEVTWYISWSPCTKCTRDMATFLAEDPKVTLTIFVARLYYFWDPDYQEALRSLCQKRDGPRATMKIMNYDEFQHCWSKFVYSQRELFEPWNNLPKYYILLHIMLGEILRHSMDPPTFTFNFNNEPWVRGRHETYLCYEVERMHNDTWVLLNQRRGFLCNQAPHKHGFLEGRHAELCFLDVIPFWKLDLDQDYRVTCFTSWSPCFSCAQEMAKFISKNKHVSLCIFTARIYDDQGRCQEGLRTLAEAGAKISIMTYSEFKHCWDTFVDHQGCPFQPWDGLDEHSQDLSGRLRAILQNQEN

[4] = biological target: DNA dC->dU-editing enzyme APOBEC-3A (Homo sapiens, UniProt P31941); assay: SAR analysis of small molecule inhibitors of APOBEC3A DNA Deaminase via a fluorescence-based single-stranded DNA deaminase assay.; format: functional; conditions: read-out: IC50_Mean
Sequence of DNA dC->dU-editing enzyme APOBEC-3A (P31941 whole entry, the tested form may be a part): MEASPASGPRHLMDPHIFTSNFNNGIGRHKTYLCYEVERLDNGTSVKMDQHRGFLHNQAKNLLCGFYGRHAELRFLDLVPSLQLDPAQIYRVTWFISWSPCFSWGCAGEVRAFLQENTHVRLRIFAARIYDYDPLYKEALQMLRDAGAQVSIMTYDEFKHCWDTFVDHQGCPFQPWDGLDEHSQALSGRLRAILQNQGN

Hexokinase HKDC1 = biological target: T1, Hexokinase HKDC1 (Homo sapiens, UniProt Q2TB90); assay: SAR analysis of small molecule inhibitors of hexokinase domain containing I (HKDC1). [Related pubchem assays (depositor defined):AID493160, AID493190]; format: functional
T1 sequence (Q2TB90 whole entry): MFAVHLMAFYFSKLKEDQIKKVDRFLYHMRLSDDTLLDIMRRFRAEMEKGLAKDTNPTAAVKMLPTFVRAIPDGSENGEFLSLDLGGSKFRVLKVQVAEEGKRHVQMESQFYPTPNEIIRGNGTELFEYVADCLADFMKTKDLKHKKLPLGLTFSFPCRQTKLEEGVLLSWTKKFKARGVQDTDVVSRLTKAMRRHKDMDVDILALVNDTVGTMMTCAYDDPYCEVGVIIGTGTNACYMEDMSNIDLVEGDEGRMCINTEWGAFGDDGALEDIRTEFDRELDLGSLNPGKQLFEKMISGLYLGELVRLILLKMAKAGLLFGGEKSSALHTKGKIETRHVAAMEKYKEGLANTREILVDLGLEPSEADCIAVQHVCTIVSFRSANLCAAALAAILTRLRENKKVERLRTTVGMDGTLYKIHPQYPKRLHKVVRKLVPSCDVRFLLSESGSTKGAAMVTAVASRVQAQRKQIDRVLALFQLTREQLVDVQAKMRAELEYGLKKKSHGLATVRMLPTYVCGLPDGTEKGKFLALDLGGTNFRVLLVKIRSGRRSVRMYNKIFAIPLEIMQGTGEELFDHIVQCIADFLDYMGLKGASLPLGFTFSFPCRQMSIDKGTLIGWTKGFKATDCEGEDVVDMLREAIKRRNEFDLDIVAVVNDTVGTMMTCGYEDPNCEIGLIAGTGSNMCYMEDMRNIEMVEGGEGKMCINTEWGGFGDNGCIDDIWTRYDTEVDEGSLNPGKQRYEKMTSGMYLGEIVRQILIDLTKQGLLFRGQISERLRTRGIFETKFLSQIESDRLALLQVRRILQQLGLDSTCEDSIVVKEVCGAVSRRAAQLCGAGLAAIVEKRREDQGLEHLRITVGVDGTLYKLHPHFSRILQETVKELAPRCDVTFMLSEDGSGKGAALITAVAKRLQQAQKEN

Hexokinase-1 = Hexokinase-1 (Homo sapiens, UniProt P19367); assay: SAR analysis of small molecule inhibitors of hexokinase domain containing I (HKDC1) in the hexokinase 1 selectivity assay. [Related pubchem assays (depositor defined):AID493160, AID493190]; format: functional
Sequence of Hexokinase-1 (P19367 whole entry, the tested form may be a part): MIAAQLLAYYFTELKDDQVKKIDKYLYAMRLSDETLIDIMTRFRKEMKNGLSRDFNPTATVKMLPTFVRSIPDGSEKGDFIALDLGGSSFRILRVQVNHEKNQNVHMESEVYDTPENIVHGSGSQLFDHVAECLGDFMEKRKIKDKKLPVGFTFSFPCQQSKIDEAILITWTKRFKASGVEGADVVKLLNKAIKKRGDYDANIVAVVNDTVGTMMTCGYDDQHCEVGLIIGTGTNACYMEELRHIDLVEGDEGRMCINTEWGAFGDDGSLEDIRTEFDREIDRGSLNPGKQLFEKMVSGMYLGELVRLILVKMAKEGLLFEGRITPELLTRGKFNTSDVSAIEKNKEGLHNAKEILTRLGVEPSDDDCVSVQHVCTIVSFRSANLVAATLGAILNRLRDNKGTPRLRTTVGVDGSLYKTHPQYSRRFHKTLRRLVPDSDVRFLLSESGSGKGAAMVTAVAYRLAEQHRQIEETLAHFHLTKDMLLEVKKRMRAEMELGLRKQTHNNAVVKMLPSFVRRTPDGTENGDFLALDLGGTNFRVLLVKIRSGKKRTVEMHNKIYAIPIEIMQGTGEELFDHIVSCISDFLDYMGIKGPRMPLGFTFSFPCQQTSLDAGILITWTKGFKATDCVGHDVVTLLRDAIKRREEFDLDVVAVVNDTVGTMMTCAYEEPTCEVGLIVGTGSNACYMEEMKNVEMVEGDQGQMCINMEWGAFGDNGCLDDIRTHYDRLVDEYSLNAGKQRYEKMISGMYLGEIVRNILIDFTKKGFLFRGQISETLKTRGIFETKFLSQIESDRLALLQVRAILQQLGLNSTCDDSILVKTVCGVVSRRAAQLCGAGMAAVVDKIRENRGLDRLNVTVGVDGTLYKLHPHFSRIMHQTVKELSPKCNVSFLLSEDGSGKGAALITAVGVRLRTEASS

Phospholipase D1 = Phospholipase D1 (Homo sapiens, UniProt Q13393); assay: PLD1 inhibitor potency in cells, dose response (AID 602151); format: functional;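 also: cellular PLD1 assay in Calu-1 cells stimulated with PMA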
Sequence of Phospholipase D1 (Q13393 whole entry): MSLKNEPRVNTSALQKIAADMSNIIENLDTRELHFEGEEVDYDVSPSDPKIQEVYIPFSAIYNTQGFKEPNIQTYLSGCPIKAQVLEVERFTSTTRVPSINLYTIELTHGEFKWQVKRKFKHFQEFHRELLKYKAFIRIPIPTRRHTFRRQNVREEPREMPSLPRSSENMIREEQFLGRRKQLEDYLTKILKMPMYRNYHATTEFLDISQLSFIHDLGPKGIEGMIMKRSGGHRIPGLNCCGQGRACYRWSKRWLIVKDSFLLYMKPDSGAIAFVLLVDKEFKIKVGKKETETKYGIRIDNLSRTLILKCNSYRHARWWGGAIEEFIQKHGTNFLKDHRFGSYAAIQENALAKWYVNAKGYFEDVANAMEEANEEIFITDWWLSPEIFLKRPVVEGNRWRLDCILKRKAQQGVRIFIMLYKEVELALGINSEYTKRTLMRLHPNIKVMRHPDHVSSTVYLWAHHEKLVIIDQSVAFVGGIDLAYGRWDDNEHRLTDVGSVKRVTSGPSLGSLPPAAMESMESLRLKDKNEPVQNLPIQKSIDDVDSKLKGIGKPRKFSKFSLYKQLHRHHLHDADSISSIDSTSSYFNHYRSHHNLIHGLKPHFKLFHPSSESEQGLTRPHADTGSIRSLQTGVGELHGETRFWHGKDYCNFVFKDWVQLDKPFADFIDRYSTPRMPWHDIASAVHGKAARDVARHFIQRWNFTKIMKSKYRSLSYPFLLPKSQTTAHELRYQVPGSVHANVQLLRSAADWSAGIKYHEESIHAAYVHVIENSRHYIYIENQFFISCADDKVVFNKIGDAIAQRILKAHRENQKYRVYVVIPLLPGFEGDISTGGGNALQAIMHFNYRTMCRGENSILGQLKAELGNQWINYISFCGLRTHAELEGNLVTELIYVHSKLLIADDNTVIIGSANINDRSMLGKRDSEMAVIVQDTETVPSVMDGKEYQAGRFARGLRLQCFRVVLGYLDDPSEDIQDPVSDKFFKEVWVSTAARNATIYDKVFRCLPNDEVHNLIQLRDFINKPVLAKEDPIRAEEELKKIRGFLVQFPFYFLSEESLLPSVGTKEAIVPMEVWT

Phospholipase D2 = Phospholipase D2 (Homo sapiens, UniProt O14939); assay: PLD2 inhibitor potency in cells, dose response (AID 602147); format: functional;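 also: cellular assay in HEK293 cells overexpressing GFP-tagged PLD2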
Sequence of Phospholipase D2 (O14939 whole entry): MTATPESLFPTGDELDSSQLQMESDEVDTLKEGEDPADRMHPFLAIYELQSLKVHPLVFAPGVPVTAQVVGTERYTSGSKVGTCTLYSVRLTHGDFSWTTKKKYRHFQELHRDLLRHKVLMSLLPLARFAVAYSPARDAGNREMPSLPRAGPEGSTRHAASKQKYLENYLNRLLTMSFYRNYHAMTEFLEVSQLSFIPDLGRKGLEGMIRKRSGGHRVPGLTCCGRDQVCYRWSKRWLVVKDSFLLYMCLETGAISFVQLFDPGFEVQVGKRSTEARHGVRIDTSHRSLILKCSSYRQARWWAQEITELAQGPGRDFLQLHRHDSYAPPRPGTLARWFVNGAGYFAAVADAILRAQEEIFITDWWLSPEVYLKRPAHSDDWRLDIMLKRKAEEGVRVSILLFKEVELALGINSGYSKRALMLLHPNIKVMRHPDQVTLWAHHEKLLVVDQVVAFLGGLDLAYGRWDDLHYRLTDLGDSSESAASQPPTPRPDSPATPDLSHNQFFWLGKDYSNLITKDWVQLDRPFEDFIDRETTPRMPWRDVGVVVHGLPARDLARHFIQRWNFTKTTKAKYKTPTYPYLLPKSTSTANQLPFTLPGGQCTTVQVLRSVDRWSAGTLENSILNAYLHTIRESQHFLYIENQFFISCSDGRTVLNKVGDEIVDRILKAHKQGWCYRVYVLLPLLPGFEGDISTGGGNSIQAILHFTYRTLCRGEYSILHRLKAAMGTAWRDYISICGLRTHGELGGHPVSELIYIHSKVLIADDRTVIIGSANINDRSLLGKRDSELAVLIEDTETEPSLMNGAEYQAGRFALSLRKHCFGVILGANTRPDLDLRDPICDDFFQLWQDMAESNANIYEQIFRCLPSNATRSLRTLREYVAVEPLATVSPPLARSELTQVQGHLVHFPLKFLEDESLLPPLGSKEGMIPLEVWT

HEK293 [5] = assay: cytotoxicity in HEK293T NF-kB-Luc cells, SAR follow-up, cytotoxicity control for NF-kB activator project, cell-based, resazurin fluorescence (AID 493251); format: functional; conditions: Homo sapiens
HEK293 [6] = assay: SAR Analysis of small molecule inhibitors of both B-cell and T-cell specific antigen receptor-induced NF-kB activation in a HEK-293T cell line using a luminescence assay. [Related pubchem assays (depositor defined):AID435003, AID435022, AID465, AID489019, AID489029]; format: functional, cell-based; conditions: Homo sapiens
Jurkat = assay: SAR Analysis of small molecule inhibitors of both B-cell and T-cell specific antigen receptor-induced NF-kB activation in a Jurkat cell line using a luminescence assay. [Related pubchem assays (depositor defined):AID435003, AID435022, AID465, AID489029]; format: functional, cell-based; conditions: Homo sapiens
Vero = assay: cells; format: functional, cell-based; conditions: Chlorocebus sabaeus
[7] = Shn3 3'UTR reporter inhibitors, dose response, cell-based, Clone20 osteoblasts, firefly luciferase, cherry-picked (AID 624132); format: functional;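 also: firefly luciferase luminescence from reporter carrying the Shn3 3'UTR in osteoblasts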
Escherichia coli [8] = assay: microbe, parasite or virus in culture
[9] = biological target: Heat shock protein HSP 90-alpha (Homo sapiens, UniProt P07900); format: functional, organism-based
[10] = biological target: Protein disulfide-isomerase (Homo sapiens, UniProt P07237); assay: PDI inhibitors, insulin aggregation turbidity, dose response, biochemical, absorbance, cherry-picked samples (AID 602350); format: functional
Sequence of Protein disulfide-isomerase (P07237 whole entry): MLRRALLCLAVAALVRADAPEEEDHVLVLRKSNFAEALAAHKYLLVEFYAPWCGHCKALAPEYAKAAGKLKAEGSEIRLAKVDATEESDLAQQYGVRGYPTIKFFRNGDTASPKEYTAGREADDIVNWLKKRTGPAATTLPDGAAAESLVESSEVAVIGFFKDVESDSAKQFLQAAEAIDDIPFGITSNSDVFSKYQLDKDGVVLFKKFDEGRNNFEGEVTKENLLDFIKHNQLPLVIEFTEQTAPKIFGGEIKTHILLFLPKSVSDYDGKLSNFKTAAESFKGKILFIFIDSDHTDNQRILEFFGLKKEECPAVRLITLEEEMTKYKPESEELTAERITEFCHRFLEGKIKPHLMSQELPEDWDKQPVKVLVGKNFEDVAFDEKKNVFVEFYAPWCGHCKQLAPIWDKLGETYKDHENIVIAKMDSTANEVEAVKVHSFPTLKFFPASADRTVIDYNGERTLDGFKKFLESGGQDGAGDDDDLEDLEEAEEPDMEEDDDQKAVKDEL

[11] = control 3'UTR Renilla luciferase suppression, dose response, counter-screen for Shn3 inhibitor project, cell-based, Clone20-Shn3RL, cherry-picked (AID 624133); format: functional
[12] = HepG2 cell cytotoxicity, dose response, cytotoxicity control for Shn3 inhibitor project, CellTiter-Glo, cherry-picked (AID 624134); format: functional, cell-based
Escherichia coli [13] = assay: microbe, parasite or virus in culture; remark: listed apart in the source
[14] = biological target: T2, Sentrin-specific protease 8 (Homo sapiens, UniProt Q96LD8); assay: SENP8 protease inhibitors, SAR follow-up, biochemical, luminescence (AID 504501); format: functional
T2 sequence (Q96LD8 whole entry): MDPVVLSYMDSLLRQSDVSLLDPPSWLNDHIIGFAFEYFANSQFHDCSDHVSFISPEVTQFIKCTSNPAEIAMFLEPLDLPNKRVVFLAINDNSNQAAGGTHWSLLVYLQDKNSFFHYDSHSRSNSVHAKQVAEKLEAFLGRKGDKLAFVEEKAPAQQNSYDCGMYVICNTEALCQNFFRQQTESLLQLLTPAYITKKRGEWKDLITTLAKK

[15] = biological target: T3, Sentrin-specific protease 7 (Homo sapiens, UniProt Q9BQF6); assay: SENP7 protease inhibitors, SAR follow-up, biochemical, luminescence (AID 504497); format: functional
T3 sequence (Q9BQF6 whole entry): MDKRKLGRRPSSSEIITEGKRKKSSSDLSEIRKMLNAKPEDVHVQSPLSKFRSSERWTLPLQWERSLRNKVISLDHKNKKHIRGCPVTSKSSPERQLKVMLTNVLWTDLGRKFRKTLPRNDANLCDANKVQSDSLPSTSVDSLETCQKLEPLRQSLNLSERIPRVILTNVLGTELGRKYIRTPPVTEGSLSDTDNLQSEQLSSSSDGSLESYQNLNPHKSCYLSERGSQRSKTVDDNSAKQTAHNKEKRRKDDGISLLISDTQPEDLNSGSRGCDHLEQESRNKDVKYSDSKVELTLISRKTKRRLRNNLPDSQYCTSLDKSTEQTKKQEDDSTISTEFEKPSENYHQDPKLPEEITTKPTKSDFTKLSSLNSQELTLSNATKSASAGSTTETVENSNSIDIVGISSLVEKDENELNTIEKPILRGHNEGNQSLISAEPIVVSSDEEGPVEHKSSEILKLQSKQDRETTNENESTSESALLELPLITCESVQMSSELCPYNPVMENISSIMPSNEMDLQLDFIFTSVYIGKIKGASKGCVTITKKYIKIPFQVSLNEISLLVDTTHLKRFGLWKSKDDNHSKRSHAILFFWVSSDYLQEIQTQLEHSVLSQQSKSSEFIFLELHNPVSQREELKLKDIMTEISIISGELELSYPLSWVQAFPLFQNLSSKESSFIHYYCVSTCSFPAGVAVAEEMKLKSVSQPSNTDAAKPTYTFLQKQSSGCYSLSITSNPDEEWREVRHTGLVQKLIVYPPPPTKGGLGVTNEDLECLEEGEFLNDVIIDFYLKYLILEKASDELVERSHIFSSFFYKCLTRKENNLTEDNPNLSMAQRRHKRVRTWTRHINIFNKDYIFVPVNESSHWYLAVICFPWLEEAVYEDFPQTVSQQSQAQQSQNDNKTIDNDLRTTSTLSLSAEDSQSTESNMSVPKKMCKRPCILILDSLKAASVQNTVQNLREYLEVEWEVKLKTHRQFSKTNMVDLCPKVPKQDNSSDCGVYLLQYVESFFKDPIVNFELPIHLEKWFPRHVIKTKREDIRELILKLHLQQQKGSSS

Caspase-3 = biological target: T4, Caspase-3 (Homo sapiens, UniProt P42574); assay: SAR Analysis of small molecule inhibitors of Sentrin-specific proteases (SENPs) using a Caspase-3 Selectivity assay. [Related pubchem assays (depositor defined):AID2540, AID2599, AID434973, AID489001]; format: functional
T4 sequence (P42574 whole entry): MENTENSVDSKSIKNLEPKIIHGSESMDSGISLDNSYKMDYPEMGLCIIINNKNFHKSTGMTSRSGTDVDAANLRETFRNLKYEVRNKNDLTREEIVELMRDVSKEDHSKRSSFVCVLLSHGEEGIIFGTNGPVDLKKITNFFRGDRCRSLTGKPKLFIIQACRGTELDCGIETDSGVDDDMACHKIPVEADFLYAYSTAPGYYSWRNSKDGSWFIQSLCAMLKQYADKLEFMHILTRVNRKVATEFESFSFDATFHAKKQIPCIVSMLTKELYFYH

[16] = biological target: T5, Sentrin-specific protease 6 (Homo sapiens, UniProt Q9GZR1); assay: SAR Analysis of small molecule inhibitors of Sentrin-specific protease 6 (SENP6) using a Luminescent assay. [Related pubchem assays (depositor defined):AID2582, AID2599]; format: functional
T5 sequence (Q9GZR1 whole entry): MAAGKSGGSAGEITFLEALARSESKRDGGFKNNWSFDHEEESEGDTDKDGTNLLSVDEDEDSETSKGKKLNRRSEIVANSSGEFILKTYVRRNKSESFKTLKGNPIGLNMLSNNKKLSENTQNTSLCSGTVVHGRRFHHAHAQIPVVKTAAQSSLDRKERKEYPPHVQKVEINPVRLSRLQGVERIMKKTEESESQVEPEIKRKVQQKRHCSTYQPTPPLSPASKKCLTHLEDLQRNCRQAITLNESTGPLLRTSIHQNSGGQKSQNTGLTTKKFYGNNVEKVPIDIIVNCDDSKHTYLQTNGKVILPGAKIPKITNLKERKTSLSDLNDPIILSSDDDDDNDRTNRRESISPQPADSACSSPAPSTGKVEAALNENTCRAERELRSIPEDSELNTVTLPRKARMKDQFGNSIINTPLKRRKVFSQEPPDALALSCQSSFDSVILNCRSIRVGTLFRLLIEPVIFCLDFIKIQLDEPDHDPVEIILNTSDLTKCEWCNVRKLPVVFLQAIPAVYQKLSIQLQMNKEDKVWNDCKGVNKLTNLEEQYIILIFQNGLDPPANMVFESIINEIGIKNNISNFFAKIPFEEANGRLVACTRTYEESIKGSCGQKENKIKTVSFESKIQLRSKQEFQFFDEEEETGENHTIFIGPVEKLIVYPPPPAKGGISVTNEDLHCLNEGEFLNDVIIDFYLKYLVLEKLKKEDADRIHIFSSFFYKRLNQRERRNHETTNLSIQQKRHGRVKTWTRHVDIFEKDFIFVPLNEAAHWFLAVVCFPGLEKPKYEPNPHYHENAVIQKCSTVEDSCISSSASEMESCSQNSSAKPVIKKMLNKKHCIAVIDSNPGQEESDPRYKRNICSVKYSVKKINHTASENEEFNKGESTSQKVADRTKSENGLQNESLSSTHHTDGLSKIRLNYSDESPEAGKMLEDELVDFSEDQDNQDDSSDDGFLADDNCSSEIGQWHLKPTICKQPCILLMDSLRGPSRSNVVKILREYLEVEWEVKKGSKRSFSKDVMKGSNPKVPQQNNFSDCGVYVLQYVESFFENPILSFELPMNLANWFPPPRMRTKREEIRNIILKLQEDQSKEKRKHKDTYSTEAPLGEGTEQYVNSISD

DNA topoisomerase = DNA topoisomerase (Yersinia pestis, UniProt A0A2S9PM60); assay: Y. pestis Topo-I inhibitors, cleavage product readout, dose response, biochemical, cherry-pick (AID 588525)

Sequence of Sphingosine 1-phosphate receptor 4 (O95977 whole entry): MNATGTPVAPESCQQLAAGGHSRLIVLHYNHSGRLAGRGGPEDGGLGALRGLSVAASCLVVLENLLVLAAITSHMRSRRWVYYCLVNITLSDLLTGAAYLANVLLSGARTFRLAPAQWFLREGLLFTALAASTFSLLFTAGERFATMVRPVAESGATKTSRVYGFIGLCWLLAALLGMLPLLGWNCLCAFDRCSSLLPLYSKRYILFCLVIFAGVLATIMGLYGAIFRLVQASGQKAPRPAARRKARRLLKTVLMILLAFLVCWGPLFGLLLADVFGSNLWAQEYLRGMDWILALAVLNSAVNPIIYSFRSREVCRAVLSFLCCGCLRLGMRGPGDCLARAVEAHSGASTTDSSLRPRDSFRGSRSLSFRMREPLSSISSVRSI

With `CC1CCCCC1N(C(=O)c1cc(C2CC2)on1)C1CCCCC1` (centres undefined) the EC50 [1] was > 50 µM (inactive) and the EC50 [2] was > 50 µM (inactive).
With `Cn1c(SCC(=O)N(Cc2ccccc2)Cc2ccco2)nnc1-c1ccc(F)cc1` the IC50 [3] was > 99 µM (inactive) and the IC50 [4] was > 99 µM (inactive).
For `Cc1ccc(CSc2nnc(NC(=O)c3ccc4ncsc4c3)s2)cc1`, the IC50 (Hexokinase HKDC1) was > 80 µM (inactive) and the IC50 (Hexokinase-1) was > 80 µM (inactive).
For `O=C(NCCN1CCC(n2c(=O)[nH]c3ccccc32)CC1)c1cccc(F)n1`, the IC50 (Phospholipase D1) was 0.19 µM (active) and the IC50 (Phospholipase D2) was 1.3 µM (active).
With `Nc1cccc2cccnc12` [8-AMINOQUINOLINE] the IC50 (HEK293 [5]) was > 80 µM (inactive), the IC50 (HEK293 [6]) was > 79 µM (inactive) and the IC50 (Jurkat) was > 79 µM (inactive).
In the case of `COc1cc2cc(C(=O)N3CC(COS(C)(=O)=O)c4ccc(O)cc43)[nH]c2c(OC)c1OC` (centres undefined), the IC50 (Vero) is reported as 8.57 µM (active), the AC50 [7] is reported as < 0.26 µM (active) and the AC50 (Escherichia coli [8]) is reported as 22.8 µM (active). For the same compound, the AC50 [9] was 0.708 µM (active), the AC50 [10] was 18 µM (active) and the AC50 [11] was < 0.26 µM (active). The AC50 [12] was 0.352 µM (active) and the AC50 (Escherichia coli [13]) was 4.26 µM (active).
For `CC(C)CC(=O)Nc1ccc(-c2nc3cc(Cl)ccc3o2)cc1`, the IC50 [14] was > 99 µM (inactive), the IC50 [15] was > 99 µM (inactive) and the IC50 (Caspase-3) was 51.9 µM (active). The IC50 [16] was > 99 µM (inactive).
With `COc1cc2ccccc2cc1C(=O)OCC(=O)N(CC(C)C)c1c(N)n(Cc2ccccc2)c(=O)[nH]c1=O` the AC50 (DNA topoisomerase) was 20.8 µM (active).
